This passage reports activation, EC50 and Emax results from patent US20230159509A1 (Amathus Therapeutics, Inc., priority 2020, published 2023).

The experiment deals with T1, TRAP1 enzyme (Homo sapiens, UniProt Q12931).
T1 construct: 150 nM Trap1 enzyme was incubated with various concentrations of the test compound
T1 sequence (Q12931 60-704): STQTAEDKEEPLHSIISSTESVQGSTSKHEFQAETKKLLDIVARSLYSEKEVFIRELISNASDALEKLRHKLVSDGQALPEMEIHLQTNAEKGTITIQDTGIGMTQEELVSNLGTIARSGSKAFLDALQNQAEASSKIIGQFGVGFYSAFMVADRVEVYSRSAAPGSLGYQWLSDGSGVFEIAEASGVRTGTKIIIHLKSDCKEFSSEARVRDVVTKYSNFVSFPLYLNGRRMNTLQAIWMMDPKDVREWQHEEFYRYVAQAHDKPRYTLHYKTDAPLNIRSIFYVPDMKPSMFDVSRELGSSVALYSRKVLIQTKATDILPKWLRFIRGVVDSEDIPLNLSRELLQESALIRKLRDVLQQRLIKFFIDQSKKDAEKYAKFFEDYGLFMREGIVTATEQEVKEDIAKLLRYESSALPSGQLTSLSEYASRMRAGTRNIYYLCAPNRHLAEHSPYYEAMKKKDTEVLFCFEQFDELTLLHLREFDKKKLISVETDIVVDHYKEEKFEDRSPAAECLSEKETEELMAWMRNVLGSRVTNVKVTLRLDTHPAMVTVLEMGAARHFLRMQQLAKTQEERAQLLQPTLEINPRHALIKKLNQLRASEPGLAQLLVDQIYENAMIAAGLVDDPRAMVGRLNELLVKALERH
In words: ADP Glo assay of TRAP1 ATPase activity. Type of experiment: biochemical. Particulars: for activation at 50 µM: 1 h, compound concentration 50 μM, read-out: ADP-Glo Percent Activation at 50 μM; for EC50: concentration for half maximal activation, read-out: ADP GLO DRC: GeoMean EC50; for Emax: maximal percent activation, read-out: ADP GLO DRC: Mean Emax. Summed up: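 Compound (0.79–100 μM) was preincubated 30 min at 37° C with 150 nM TRAP1 in 25 mM Pipes pH 7.5, 40 mM KCl, 0.05 mM MgCl2. Reaction started with 20 μM ATP, 60 min at 37° C. ADP measured by luminescence against a standard curve; activation fitted sigmoidally for EC50 and Emax.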
In general terms: In ADP-Glo the light output rises with the ADP produced.

For the molecule `COc1cc(C(=O)Nc2cnc(OC)c(S(=O)(=O)Nc3c(C)cccc3C)c2)ccn1` [compound 2575], the activation at 50 µM fell in the range of 151 to 180%.
The same measure, in the same setting: for `COc1ncc(NC(=O)c2ocnc2C)cc1S(=O)(=O)Nc1c(C)cccc1C` [compound 2733] the value was 151 to 180%.
In the case of `COc1ncc(NC(=O)c2ccc3nc(C)sc3c2)cc1S(=O)(=O)Nc1c(C)cccc1C` [compound 1400, N-(5-(N-(2,6-dimethylphenyl)sulfamoyl)-6-methoxypyridin-3-yl)-2-methylbenzo[d]thiazole-6-carboxamide], the EC50 (in general, the concentration needed to bring the measured effect to its halfway point) was 10 to 20 µM and the Emax (as a rule, the greatest response seen or fitted, relative to the assay's reference) fell in the range of 200 to 300%.
In the case of `COc1ncc(NC(=O)c2cc[nH]c3nccc2-3)cc1S(=O)(=O)Nc1c(C)cccc1C` [compound 2735], the activation at 50 µM was 181 to 352%.
On the same count and under the same terms, next, `COc1ncc(NC(=O)c2nn(C)cc2F)cc1S(=O)(=O)Nc1c(C)cccc1C` [compound 2624]: 151 to 180%; `COc1nc(C(F)(F)F)c(C(=O)Nc2cnc(OC)c(S(=O)(=O)Nc3c(C)cccc3C)c2)s1` [compound 2768]: 181 to 352%.
`COc1ncc(NC(=O)c2ccns2)cc1S(=O)(=O)Nc1c(C)cccc1C` [compound 2617]: the activation at 50 µM fell in the range of 120 to 150%.
With `COc1ncc(NC(=O)c2ccc(CN3CCCCC3)cc2)cc1S(=O)(=O)Nc1c(C)cccc1C` [compound 2770], the activation at 50 µM was 151 to 180%.
On to `COc1ncc(NC(=O)c2cnc(N(C)C)nc2)cc1S(=O)(=O)Nc1c(C)cccc1C` [compound 2737], for which the activation at 50 µM is 120 to 150%.
For the molecule `COc1cnccc1C(=O)Nc1cnc(OC)c(S(=O)(=O)Nc2c(C)cccc2C)c1` [compound 2546], the activation at 50 µM was in the range of 120 to 150%.
Regarding `COc1ncc(NC(=O)c2ccc(CN3CCOCC3)cc2)cc1S(=O)(=O)Nc1c(C)cccc1C` [compound 2570], the activation at 50 µM was 181 to 352%.
Turning to `COc1ncc(NC(=O)c2csnn2)cc1S(=O)(=O)Nc1c(C)cccc1C` [compound 2777], the activation at 50 µM is 120 to 150%.
The same measure, in the same setting: next, `COc1ncc(NC(=O)c2cccnc2N2CCOCC2)cc1S(=O)(=O)Nc1c(C)cccc1C` [compound 2759]: 181 to 352%.
As to `COc1ncc(NC(=O)c2csc(Br)n2)cc1S(=O)(=O)Nc1c(C)cccc1C` [compound 2502], the EC50 fell in the range of 10 to 20 µM and the Emax is 119 to 159%.
Consider `COc1ncc(NC(=O)c2cn(C)nc2C)cc1S(=O)(=O)Nc1c(C)cccc1C` [compound 2628], for which the activation at 50 µM was 120 to 150%.
Take `COc1ncc(NC(=O)c2ccc(N3CCOCC3)cn2)cc1S(=O)(=O)Nc1c(C)cccc1C` [compound 2653]: the activation at 50 µM is 151 to 180%.
Still for that read-out and setting: for `CCN(CC)S(=O)(=O)c1ccc(C(=O)Nc2cnc(OC)c(S(=O)(=O)Nc3c(C)cccc3C)c2)cc1` [compound 2642] the value was 151 to 180%; for `COc1ncc(NC(=O)c2ccn(C(C)C)n2)cc1S(=O)(=O)Nc1c(C)cccc1C` [compound 2601], 181 to 352%.
As for `[2H]c1c([2H])c([2H])c(C([2H])([2H])[2H])c(NS(=O)(=O)c2cc(NC(=S)c3coc(-c4ccccc4)n3)cnc2OC)c1[2H]` [compound 2493], the EC50 is 20 to 100 µM and the Emax fell in the range of 160 to 199%.
`O=C(Nc1cc(S(=O)(=O)Nc2ccc(Cl)cc2)ccn1)c1cnc(-c2ccccc2)[nH]1` [compound 1361, N-(4-(N-(4-chlorophenyl)sulfamoyl)pyridin-2-yl)-2-phenyl-1H-imidazole-5-carboxamide]: the EC50 lay in the range of 10 to 20 µM and the Emax is 200 to 300%.
In the case of `COc1ncc(NC(=O)c2coc(-c3ccccc3)n2)cc1S(=O)(=O)Nc1ccc(F)cc1C(C)C` [compound 2381], the EC50 is less than 10 µM and the Emax was 200 to 300%.
For `COc1ncc(NC(=O)c2ncc(-c3ccccc3)o2)cc1S(=O)(=O)Nc1cc(F)c(C)cc1C#N` [compound 1898], the EC50 fell in the range of 20 to 100 µM and the Emax was in the range of 200 to 300%.
As for `COc1ncc(NC(=O)c2cnn(C)c2C)cc1S(=O)(=O)Nc1c(C)cccc1C` [compound 2776], the activation at 50 µM lay within 120 to 150%.
As to `COc1ncc(NC(=O)c2cccc3c2CCCC3)cc1S(=O)(=O)Nc1c(C)cccc1C` [compound 2574], the activation at 50 µM lay within 151 to 180%.
`COc1ncc(NC(=O)c2csc(-c3ccccc3)n2)cc1S(=O)(=O)Nc1c(C)nn(C)c1C` [compound 1417, N-(6-methoxy-5-(N-(1,3,5-trimethyl-1H-pyrazol-4-yl)sulfamoyl)pyridin-3-yl)-2-phenylthiazole-4-carboxamide]: the EC50 was in the range of 20 to 100 µM and the Emax was in the range of 200 to 300%.
With `CCn1cncc1C(=O)Nc1cnc(OC)c(S(=O)(=O)Nc2c(C)cccc2C)c1` [compound 2630], the activation at 50 µM fell in the range of 120 to 150%.
Regarding `COc1ncc(NC(=O)c2ncc(-c3ccccc3)o2)cc1S(=O)(=O)Nc1ccc2cnoc2c1` [compound 1525], the EC50 is 20 to 100 µM and the Emax lay within 200 to 300%.
For the molecule `COc1ncc(NC(=O)c2ccc3c(c2)nnn3C)cc1S(=O)(=O)Nc1c(C)cccc1C` [compound 2541], the activation at 50 µM fell in the range of 120 to 150%.
Take `COc1ncc(NC(=O)c2cc3[nH]c(=O)[nH]c(=O)n3c2)cc1S(=O)(=O)Nc1c(C)cccc1C` [compound 2732]: the activation at 50 µM was 151 to 180%.
Turning to `COc1ncc(NC(=O)c2n[nH]c3c2CCC3)cc1S(=O)(=O)Nc1c(C)cccc1C` [compound 2701], the activation at 50 µM was 181 to 352%.
As to `COc1ncc(NC(=O)c2cnsc2)cc1S(=O)(=O)Nc1c(C)cccc1C` [compound 2636], the activation at 50 µM was in the range of 120 to 150%.
Consider `COc1ncc(NC(=O)c2ccc(S(=O)(=O)NC(C)(C)C)cc2)cc1S(=O)(=O)Nc1c(C)cccc1C` [compound 2561], for which the activation at 50 µM lay within 181 to 352%.
`COc1ncc(NC(=O)c2csc(-c3ccccc3)n2)cc1S(=O)(=O)Nc1c(C(F)(F)F)cccc1C(F)(F)F` [compound 1970, N-(5-(N-(2,6-bis(trifluoromethyl)phenyl)sulfamoyl)-6-methoxypyridin-3-yl)-2-phenylthiazole-4-carboxamide]: the EC50 is 10 to 20 µM and the maximum response (Emax) was in the range of 200 to 300%.
Turning to `COc1ncc(NC(=O)c2c[nH]c(C(F)(F)F)n2)cc1S(=O)(=O)Nc1c(C)cccc1C` [compound 2474], the EC50 lay within 20 to 100 µM and the Emax lay within 160 to 199%.
On to `COc1ncc(NC(=O)c2ccn(C)c2)cc1S(=O)(=O)Nc1c(C)cccc1C` [compound 2666], for which the activation at 50 µM lay within 120 to 150%.
Same read-out and setting: for `COc1ncc(NC(=O)c2ccnc(N3CCOCC3)c2)cc1S(=O)(=O)Nc1c(C)cccc1C` [compound 2744] the value was 181 to 352%.
`COc1ncc(NC(=O)c2cc(C)nn2C)cc1S(=O)(=O)Nc1c(C)cccc1C` [compound 2607]: the activation at 50 µM lay within 120 to 150%.
Take `COc1ncc(NC(=O)c2coc(-c3ccccc3)n2)cc1S(=O)(=O)Nc1ccc(F)c(F)c1C` [compound 2000]: the EC50 lay within 10 to 20 µM and the Emax lay within 200 to 300%.
With `COc1ncc(NC(=O)c2cc(C)[nH]n2)cc1S(=O)(=O)Nc1c(C)cccc1C` [compound 2749], the activation at 50 µM was 151 to 180%.
Regarding `COc1ncc(NC(=O)c2ncc(-c3ccccc3)o2)cc1S(=O)(=O)Nc1ccc2c(n1)CCC2` [compound 1908], the EC50 fell in the range of 20 to 100 µM and the Emax lay within 119 to 159%.
As to `COc1ncc(NC(=O)c2ccc(C(C)=O)cc2)cc1S(=O)(=O)Nc1c(C)cccc1C` [compound 2597], the activation at 50 µM was 181 to 352%.
As for `COc1ncc(NC(=O)c2ccc3c(c2)CC(=O)N3)cc1S(=O)(=O)Nc1c(C)cccc1C` [compound 2523], the activation at 50 µM fell in the range of 181 to 352%.
Same read-out and setting: for `COc1ncc(NC(=O)c2[nH]cnc2C)cc1S(=O)(=O)Nc1c(C)cccc1C` [compound 2731] the value was 120 to 150%; for `COc1ncc(NC(=O)c2cnn(C)c2OC)cc1S(=O)(=O)Nc1c(C)cccc1C` [compound 2762], 120 to 150%; for `COc1ncc(NC(=O)c2ccc(NC(=O)C(C)(C)C)cc2)cc1S(=O)(=O)Nc1c(C)cccc1C` [compound 2699], 151 to 180%.
Take `COc1ncc(NC(=O)c2ncc(-c3ccccc3)o2)cc1S(=O)(=O)Nc1c(C(C)C)ccnc1C(C)C` [compound 1808]: the EC50 lay within 10 to 20 µM and the maximum response (Emax) lay in the range of 200 to 300%.
Take `COc1ncc(NC(=O)c2cnc(-c3ccccc3)[nH]2)cc1S(=O)(=O)Nc1ccc(Cl)cc1` [compound 1481, N-(5-(N-(4-chlorophenyl)sulfamoyl)-6-methoxypyridin-3-yl)-2-phenyl-1H-imidazole-5-carboxamide]: the EC50 lay in the range of 10 to 20 µM and the Emax lay in the range of 160 to 199%.
Consider `COc1ncc(NC(=O)c2cccc(N3CCOCC3)n2)cc1S(=O)(=O)Nc1c(C)cccc1C` [compound 2584], for which the activation at 50 µM lay within 181 to 352%.
For the molecule `COc1ncc(NC(=O)c2csc(-c3ccccc3)n2)cc1S(=O)(=O)Nc1c(C)cnn1C` [compound 1729], the EC50 was 20 to 100 µM and the Emax was 119 to 159%.
